Results taken from PubChem BioAssay AID328 (DTP/NCI, 2004).
Values joined by “and” are separate entries in the source; they are usually repeats but may differ in a detail not shown here. Equal entries are not always repeated. Inconclusive results and toxic doses are left out.

Tested on: BDF1 mice, P388 leukemia ip, median survival T/C
Assay: NCI In Vivo Anticancer Drug Screen. Data for tumor model P388 Leukemia (intraperitoneal) in B6D2F1 (BDF1) mice
Details: endpoint: median survival time, higher = longer survival
In short: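 Read-out is survival of treated animals expressed relative to the vehicle group, as a T/C ratio.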

[1] = dose: 50.0 mg/kg/injection, schedule: Q01DX009 (ip), vehicle: other
[2] = dose: 100.0 mg/kg/injection, schedule: Q01DX009 (ip), vehicle: Klucel (hydroxypropylcellulose) (HPC)
[3] = dose: 200.0 mg/kg/injection, schedule: Q01DX009 (ip), vehicle: Klucel (hydroxypropylcellulose) (HPC)
[4] = dose: 400.0 mg/kg/injection, schedule: Q01DX009 (ip), vehicle: Klucel (hydroxypropylcellulose) (HPC)
[5] = dose: 100.0 mg/kg/injection, schedule: Q01DX009 (ip), vehicle: saline with Tween-80
[6] = dose: 100.0 mg/kg/injection, schedule: Q04DX003 (ip), vehicle: saline with Tween-80
[7] = dose: 200.0 mg/kg/injection, schedule: Q01DX009 (ip), vehicle: saline with Tween-80
[8] = dose: 200.0 mg/kg/injection, schedule: Q04DX003 (ip), vehicle: saline with Tween-80
[9] = dose: 12.5 mg/kg/injection, schedule: Q01DX009 (ip), vehicle: Klucel (hydroxypropylcellulose) (HPC)
[10] = dose: 25.0 mg/kg/injection, schedule: Q01DX009 (ip), vehicle: Klucel (hydroxypropylcellulose) (HPC)
[11] = dose: 100.0 mg/kg/injection, schedule: Q01DX009 (ip), vehicle: saline
[12] = dose: 200.0 mg/kg/injection, schedule: Q01DX009 (ip), vehicle: saline
[13] = dose: 50.0 mg/kg/injection, schedule: Q01DX009 (ip), vehicle: Klucel (hydroxypropylcellulose) (HPC)
[14] = dose: 50.0 mg/kg/injection, schedule: Q01DX009 (ip), vehicle: saline
[15] = dose: 50.0 mg/kg/injection, schedule: Q01DX009 (ip), vehicle: saline with Tween-80
[16] = dose: 6.25 mg/kg/injection, schedule: Q01DX009 (ip), vehicle: saline with Tween-80
[17] = dose: 12.5 mg/kg/injection, schedule: Q01DX009 (ip), vehicle: saline with Tween-80
[18] = dose: 25.0 mg/kg/injection, schedule: Q01DX009 (ip), vehicle: saline with Tween-80

With `Cc1nnc2c(=S)[nH]ccn12` the T/C (dose: 100.0 mg/kg/injection, schedule: Q01DX001 (ip), vehicle: saline with Tween-80) was 113 % of control, the T/C (dose: 200.0 mg/kg/injection, schedule: Q01DX001 (ip), vehicle: saline with Tween-80) was 106 % of control and the T/C (dose: 400.0 mg/kg/injection, schedule: Q01DX001 (ip), vehicle: saline with Tween-80) was 100 % of control.
`Cc1cc(O)c2c(c1)OC1(C)CCC3C(C)(C)CCCC34COC2C14` (stereo not drawn) was tested, and the T/C [1] was 109 % of control, the T/C (dose: 100.0 mg/kg/injection, schedule: Q01DX009 (ip), vehicle: other) was 114 % of control and the T/C (dose: 200.0 mg/kg/injection, schedule: Q01DX009 (ip), vehicle: other) was 92 % of control and 110 % of control. For the same compound, the T/C (dose: 400.0 mg/kg/injection, schedule: Q01DX009 (ip), vehicle: other) was 101 % of control.
In the case of `O=C1OC(=O)c2c1ccc(Br)c2Br`, the T/C [2] is reported as 100 % of control, the T/C [3] is reported as 90 % of control and the T/C [4] is reported as 90 % of control.
In the case of `CCCC[N+](CC)(CC)CCCNC1=CC(=O)C(NCCC[N+](CC)(CC)CCCC)=CC1=O`, the T/C (dose: 0.39 mg/kg/injection, schedule: Q04DX002 (ip), vehicle: saline) is reported as 105 % of control and the T/C (dose: 0.78 mg/kg/injection, schedule: Q04DX002 (ip), vehicle: saline) is reported as 105 % of control.
`O=CCC(O)C(O)C(O)CO` (stereo not drawn) was tested, and the T/C (dose: 94.0 mg/kg/injection, schedule: Q01DX010 (ip), vehicle: saline) was 100 % of control, the T/C (dose: 188.0 mg/kg/injection, schedule: Q01DX010 (ip), vehicle: saline) was 100 % of control and the T/C (dose: 375.0 mg/kg/injection, schedule: Q01DX010 (ip), vehicle: saline) was 113 % of control. The T/C (dose: 750.0 mg/kg/injection, schedule: Q01DX010 (ip), vehicle: saline) was 100 % of control.
For `O=C(Cn1ccc(=O)[nH]c1=O)c1cccs1`, the T/C [5] was 90 % of control, the T/C [6] was 100 % of control and the T/C [7] was 86 % of control. For the same compound, the T/C [8] was 95 % of control, the T/C (dose: 400.0 mg/kg/injection, schedule: Q01DX009 (ip), vehicle: saline with Tween-80) was 100 % of control and the T/C (dose: 400.0 mg/kg/injection, schedule: Q04DX003 (ip), vehicle: saline with Tween-80) was 95 % of control.
`CC(C)(C)C1Sc2nc3ccccc3n2C1=O` (stereo not drawn) was tested, and the T/C [9] was 114 % of control, the T/C (dose: 12.5 mg/kg/injection, schedule: Q04DX003 (ip), vehicle: Klucel (hydroxypropylcellulose) (HPC)) was 100 % of control and the T/C [10] was 114 % of control. For the same compound, the T/C (dose: 25.0 mg/kg/injection, schedule: Q04DX003 (ip), vehicle: Klucel (hydroxypropylcellulose) (HPC)) was 120 % of control and the T/C (dose: 50.0 mg/kg/injection, schedule: Q04DX003 (ip), vehicle: Klucel (hydroxypropylcellulose) (HPC)) was 120 % of control.
With `O=C(Cn1ccc(O)cc1=O)N1CCC2(CC1)SSC1(CCN(C(=O)Cn3ccc(O)cc3=O)CC1)S2` the T/C [11] was 100 % of control, the T/C (dose: 100.0 mg/kg/injection, schedule: Q04DX003 (ip), vehicle: saline) was 105 % of control and the T/C [12] was 100 % of control. For the same compound, the T/C (dose: 200.0 mg/kg/injection, schedule: Q04DX003 (ip), vehicle: saline) was 116 % of control, the T/C (dose: 400.0 mg/kg/injection, schedule: Q01DX009 (ip), vehicle: saline) was 95 % of control and the T/C (dose: 400.0 mg/kg/injection, schedule: Q04DX003 (ip), vehicle: saline) was 122 % of control.
With `CS/C(=C\c1ccc2cc(C)ccc2[n+]1C)N1CCOCC1` the T/C (dose: 1.56 mg/kg/injection, schedule: Q01DX009 (ip), vehicle: saline) was 112 % of control and the T/C (dose: 3.12 mg/kg/injection, schedule: Q01DX009 (ip), vehicle: saline) was 119 % of control.
With `CSc1cccc(NC(=O)OCCOc2ccc(Br)cc2)c1` the T/C [9] was 109 % of control, the T/C [10] was 105 % of control and the T/C [13] was 102 % of control.
For `Nc1nc(=O)n(CC(=O)c2ccco2)cc1F`, the T/C [14] was 109 % of control, the T/C [11] was 95 % of control and 100 % of control and the T/C [12] was 118 % of control.
In the case of `O=S1(=O)CCN(C2CC2)CC1`, the T/C [13] is reported as 104 % of control.
For `Clc1ccc2nc(CBr)cnc2c1`, the T/C (dose: 12.5 mg/kg/injection, schedule: Q01DX009 (ip), vehicle: other) was 104 % of control, the T/C (dose: 12.5 mg/kg/injection, schedule: Q01DX009 (ip), vehicle: saline) was 120 % of control and the T/C (dose: 25.0 mg/kg/injection, schedule: Q01DX009 (ip), vehicle: other) was 109 % of control. The T/C (dose: 25.0 mg/kg/injection, schedule: Q01DX009 (ip), vehicle: saline) was 120 % of control, the T/C (dose: 25.0 mg/kg/injection, schedule: Q04DX003 (ip), vehicle: saline with Tween-80) was 95 % of control and the T/C (dose: 35.0 mg/kg/injection, schedule: Q04DX003 (ip), vehicle: saline) was 108 % of control. The T/C [1] was 118 % of control, the T/C [15] was 118 % of control and the T/C [14] was 110 % of control. The T/C (dose: 50.0 mg/kg/injection, schedule: Q04DX003 (ip), vehicle: saline with Tween-80) was 109 % of control, the T/C (dose: 55.0 mg/kg/injection, schedule: Q04DX003 (ip), vehicle: saline) was 116 % of control and the T/C (dose: 80.0 mg/kg/injection, schedule: Q04DX003 (ip), vehicle: saline) was 116 % of control. The T/C [6] was 109 % of control and the T/C [8] was 103 % of control.
`CCCCCC1c2c(cc(C)[nH]c2=O)OC(O)C1CCCC` (stereo not drawn) was tested, and the T/C [15] was 93 % of control, the T/C [5] was 90 % of control and the T/C [7] was 94 % of control.
In the case of `C[As](C)(=S)[As](C)(C)=S`, the T/C [16] is reported as 116 % of control, the T/C [17] is reported as 114 % of control and the T/C [18] is reported as 119 % of control.
In the case of `Nc1nc(N)c2c(n1)CCCC2`, the T/C [16] is reported as 100 % of control, the T/C [17] is reported as 90 % of control and the T/C [18] is reported as 90 % of control.
In the case of `Nc1nc(=O)n(CC(=O)c2cccs2)cc1F`, the T/C [15] is reported as 100 % of control, the T/C [5] is reported as 90 % of control and the T/C [6] is reported as 95 % of control. For the same compound, the T/C [7] was 86 % of control and the T/C [8] was 100 % of control.
With `COC(=O)[C@@]12OC[C@]34[C@H]([C@@H](O)[C@@H]1O)[C@@]1(C)[C@H](O)C(=O)C=C(C)[C@@H]1C[C@H]3OC(=O)C(OC(C)=O)[C@@H]24` (stereo partly drawn) the T/C (dose: 15.0 micrograms/kg/injection, schedule: Q01DX009 (ip), vehicle: saline + alcohol) was 100 % of control, the T/C (dose: 16.0 micrograms/kg/injection, schedule: Q01DX009 (ip), vehicle: saline + alcohol) was 100 % of control and the T/C (dose: 31.0 micrograms/kg/injection, schedule: Q01DX009 (ip), vehicle: saline + alcohol) was 90 % of control and 100 % of control. The T/C (dose: 62.0 micrograms/kg/injection, schedule: Q01DX009 (ip), vehicle: saline + alcohol) was 90 % of control and 104 % of control, the T/C (dose: 125.0 micrograms/kg/injection, schedule: Q01DX009 (ip), vehicle: saline + alcohol) was 115 % of control and the T/C (dose: 250.0 micrograms/kg/injection, schedule: Q01DX009 (ip), vehicle: saline + alcohol) was 110 % of control. The T/C (dose: 500.0 micrograms/kg/injection, schedule: Q01DX009 (ip), vehicle: saline + alcohol) was 120 % of control.
With `CO[C@H]1OC(=O)C=C2C1=C[C@H]1OC(=O)[C@@]3(C)CCC[C@@]2(C)[C@@H]13` the T/C [9] was 100 % of control and the T/C [10] was 100 % of control.
For `CS(=O)CC(O)(c1ccc(F)cc1)C1CC1` (stereo not drawn), the T/C [15] was 99 % of control and the T/C [5] was 103 % of control.
With `COc1ccccc1/C=C/c1ccnc2ccccc12` the T/C [2] was 95 % of control, the T/C (dose: 100.0 mg/kg/injection, schedule: Q04DX003 (ip), vehicle: Klucel (hydroxypropylcellulose) (HPC)) was 110 % of control and the T/C [3] was 113 % of control. For the same compound, the T/C (dose: 200.0 mg/kg/injection, schedule: Q04DX003 (ip), vehicle: Klucel (hydroxypropylcellulose) (HPC)) was 115 % of control, the T/C [4] was 122 % of control and the T/C (dose: 400.0 mg/kg/injection, schedule: Q04DX003 (ip), vehicle: Klucel (hydroxypropylcellulose) (HPC)) was 105 % of control.
For `NNc1c(C(N)=O)c2c(N)ncnc2n1C1OC(CO)C(O)C1O` (stereo not drawn), the T/C (dose: 50.0 mg/kg/injection, schedule: Q04DX003 (ip), vehicle: water) was 171 % of control, the T/C (dose: 100.0 mg/kg/injection, schedule: Q04DX003 (ip), vehicle: water) was 166 % of control and the T/C (dose: 200.0 mg/kg/injection, schedule: Q04DX003 (ip), vehicle: water) was 199 % of control.
`CCCCCCCCCOCC1CO1` (stereo not drawn) was tested, and the T/C [15] was 111 % of control, the T/C [5] was 110 % of control and the T/C [7] was 101 % of control.
